The source of these data is ChEMBL document CHEMBL5214996, “Design, Synthesis, and Pharmacological Evaluation of Second-Generation Soluble Adenylyl Cyclase (sAC, ADCY10) Inhibitors with Slow Dissociation Rates” (J Med Chem, 2022).

Series [1] addresses T1, Adenylate cyclase type 10 (Homo sapiens, UniProt Q96PN6).
In series [2] the target is Adenylate cyclase type 10 (Rattus norvegicus, UniProt Q9Z286). Put plainly: Inhibition of rat ADCY10 overexpressed […] assessed as IBMX stimulated cAMP accumulation preincubated for 10 mins followed by IBMX stimulation and measured after 5 mins by ELISA. In kind it is cell-based, 4-4 cell. (Cyclic AMP is a second messenger, typically raised through Gs and lowered through Gi signalling.)
Adenylate cyclase type 10 (Rattus norvegicus, UniProt Q9Z286), sequence (Q9Z286 whole entry): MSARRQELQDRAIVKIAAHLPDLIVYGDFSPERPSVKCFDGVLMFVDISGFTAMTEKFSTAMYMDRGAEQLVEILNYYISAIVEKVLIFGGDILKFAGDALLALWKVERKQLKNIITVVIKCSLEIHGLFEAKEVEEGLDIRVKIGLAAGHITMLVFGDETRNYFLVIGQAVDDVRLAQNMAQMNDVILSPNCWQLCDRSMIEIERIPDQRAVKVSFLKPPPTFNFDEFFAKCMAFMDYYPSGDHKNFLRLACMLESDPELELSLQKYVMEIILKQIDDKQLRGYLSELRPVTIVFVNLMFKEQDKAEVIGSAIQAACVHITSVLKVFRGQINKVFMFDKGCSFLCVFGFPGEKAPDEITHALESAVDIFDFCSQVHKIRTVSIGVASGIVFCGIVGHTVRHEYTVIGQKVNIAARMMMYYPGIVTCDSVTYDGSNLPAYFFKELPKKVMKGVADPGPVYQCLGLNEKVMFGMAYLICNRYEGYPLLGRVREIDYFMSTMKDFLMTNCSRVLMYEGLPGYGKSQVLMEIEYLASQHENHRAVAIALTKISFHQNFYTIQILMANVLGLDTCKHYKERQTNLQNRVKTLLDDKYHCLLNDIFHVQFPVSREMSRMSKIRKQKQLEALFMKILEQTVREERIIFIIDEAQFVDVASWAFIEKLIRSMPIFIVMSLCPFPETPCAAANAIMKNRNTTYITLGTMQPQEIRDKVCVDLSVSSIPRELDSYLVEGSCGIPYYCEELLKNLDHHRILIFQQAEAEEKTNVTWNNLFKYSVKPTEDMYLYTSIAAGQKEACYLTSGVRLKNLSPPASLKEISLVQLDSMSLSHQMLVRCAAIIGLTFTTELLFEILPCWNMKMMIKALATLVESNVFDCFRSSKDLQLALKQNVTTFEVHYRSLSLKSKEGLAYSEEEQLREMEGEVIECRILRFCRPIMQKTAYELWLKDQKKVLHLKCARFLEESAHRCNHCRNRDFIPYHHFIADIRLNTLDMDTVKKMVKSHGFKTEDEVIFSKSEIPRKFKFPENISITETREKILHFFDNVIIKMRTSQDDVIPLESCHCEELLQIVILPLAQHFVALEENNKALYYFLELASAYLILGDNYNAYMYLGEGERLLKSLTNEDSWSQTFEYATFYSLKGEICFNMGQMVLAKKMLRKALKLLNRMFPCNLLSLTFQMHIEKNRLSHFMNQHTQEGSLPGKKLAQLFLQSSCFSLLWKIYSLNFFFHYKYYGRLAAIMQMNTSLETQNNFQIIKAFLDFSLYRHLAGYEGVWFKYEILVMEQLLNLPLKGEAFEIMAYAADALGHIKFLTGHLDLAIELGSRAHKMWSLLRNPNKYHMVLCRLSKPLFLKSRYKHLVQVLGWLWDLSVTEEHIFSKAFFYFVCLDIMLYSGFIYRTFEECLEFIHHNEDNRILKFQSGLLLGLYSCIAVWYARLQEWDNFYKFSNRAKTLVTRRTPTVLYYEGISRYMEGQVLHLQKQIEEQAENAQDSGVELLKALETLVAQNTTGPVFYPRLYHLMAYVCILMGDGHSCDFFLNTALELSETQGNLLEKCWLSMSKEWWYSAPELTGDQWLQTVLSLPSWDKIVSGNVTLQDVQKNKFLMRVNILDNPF

Series [3] can be described thus: AUC(0 to 24 hrs) in CD-1 mouse at 2 mg/kg,iv and measured upto 24 hrs by LC-MS analysis. The class given is ADME, organism-based. Further details: dose 2 mg/kg, time < 24 hrs, route iv. As to conditions: in vivo.
Series [4] can be described thus: Cmax in CD-1 mouse at 2 mg/kg,iv and measured upto 24 hrs by LC-MS analysis. As to conditions: in vivo. Further details: time < 24 hrs, dose 2 mg/kg, route iv. In kind it is ADME, organism-based.
The nature of series [5]: Half life in CD-1 mouse at 2 mg/kg,iv and measured upto 24 hrs by LC-MS analysis. The class given is ADME, organism-based. The note with it: in vivo.
Series [6] can be described thus: AUC(0 to 24 hrs) in CD-1 mouse at 10 mg/kg,po and measured upto 24 hrs by LC-MS analysis. The note with it: in vivo. Further details: time < 24 hrs, dose 10 mg/kg, route po. In kind it is ADME, organism-based.
A short description of series [7]: Cmax in CD-1 mouse at 10 mg/kg,po and measured upto 24 hrs by LC-MS analysis. In kind it is ADME, organism-based. More on the design: dose 10 mg/kg, time < 24 hrs, route po. The note with it: in vivo.
A short description of series [8]: Tmax in CD-1 mouse at 10 mg/kg,po and measured upto 24 hrs by LC-MS analysis. The class given is ADME, organism-based. As to conditions: in vivo.
Series [9] can be described thus: Oral bioavailability in CD-1 mouse at 10 mg/kg and measured upto 24 hrs by LC-MS analysis. In kind it is ADME, organism-based. The note with it: in vivo.
Series [10] is described as follows: AUC(0 to 24 hrs) in CD-1 mouse at 50 mg/kg,po and measured upto 24 hrs by LC-MS analysis. More on the design: time < 24 hrs, dose 50 mg/kg, route po. The note with it: in vivo. In kind it is ADME, organism-based.
Series [11] can be described thus: Cmax in CD-1 mouse at 50 mg/kg,po and measured upto 24 hrs by LC-MS analysis. The note with it: in vivo. More on the design: time < 24 hrs, dose 50 mg/kg, route po. The class given is ADME, organism-based.
A short description of series [12]: Tmax in CD-1 mouse at 50 mg/kg,po and measured upto 24 hrs by LC-MS analysis. The class given is ADME, organism-based. The note with it: in vivo.
Series [13] can be described thus: Permeability of compound at pH 7.4 at 10 uM incubated for 3 hrs by PAMPA based LC/MS/MS analysis. The class given is ADME. The note with it: pH 7.4, 3 h. For orientation: The PAMPA barrier holds no transporters, so it reflects passive diffusion.
Series [14] is described as follows: 1-Octanol/water partition coefficient, logD of the compound at pH 7.4 by chromatographic analysis. In kind it is physicochemical.
Series [15] in a line: Kinetic solubility of compound by UV spectroscopy analysis. The class given is physicochemical. The note with it: read-out: Kinetic_solubility.
The nature of series [16]: Cytotoxicity against […] at <20 uM. The note with it: 4-4 cell. The class given is toxicity, cell-based.
Series [17] addresses T1, Adenylate cyclase type 10. This is another data set of the same source.
Description: Binding affinity to human recombinant His-tagged ADCY10 assessed as dissociation constant and measured for 600 sec by SPR analysis

Molecules are shown by their SMILES. Values after ≈ are worked out from the molar mass of the structure shown.

T1 sequence (Q96PN6 whole entry): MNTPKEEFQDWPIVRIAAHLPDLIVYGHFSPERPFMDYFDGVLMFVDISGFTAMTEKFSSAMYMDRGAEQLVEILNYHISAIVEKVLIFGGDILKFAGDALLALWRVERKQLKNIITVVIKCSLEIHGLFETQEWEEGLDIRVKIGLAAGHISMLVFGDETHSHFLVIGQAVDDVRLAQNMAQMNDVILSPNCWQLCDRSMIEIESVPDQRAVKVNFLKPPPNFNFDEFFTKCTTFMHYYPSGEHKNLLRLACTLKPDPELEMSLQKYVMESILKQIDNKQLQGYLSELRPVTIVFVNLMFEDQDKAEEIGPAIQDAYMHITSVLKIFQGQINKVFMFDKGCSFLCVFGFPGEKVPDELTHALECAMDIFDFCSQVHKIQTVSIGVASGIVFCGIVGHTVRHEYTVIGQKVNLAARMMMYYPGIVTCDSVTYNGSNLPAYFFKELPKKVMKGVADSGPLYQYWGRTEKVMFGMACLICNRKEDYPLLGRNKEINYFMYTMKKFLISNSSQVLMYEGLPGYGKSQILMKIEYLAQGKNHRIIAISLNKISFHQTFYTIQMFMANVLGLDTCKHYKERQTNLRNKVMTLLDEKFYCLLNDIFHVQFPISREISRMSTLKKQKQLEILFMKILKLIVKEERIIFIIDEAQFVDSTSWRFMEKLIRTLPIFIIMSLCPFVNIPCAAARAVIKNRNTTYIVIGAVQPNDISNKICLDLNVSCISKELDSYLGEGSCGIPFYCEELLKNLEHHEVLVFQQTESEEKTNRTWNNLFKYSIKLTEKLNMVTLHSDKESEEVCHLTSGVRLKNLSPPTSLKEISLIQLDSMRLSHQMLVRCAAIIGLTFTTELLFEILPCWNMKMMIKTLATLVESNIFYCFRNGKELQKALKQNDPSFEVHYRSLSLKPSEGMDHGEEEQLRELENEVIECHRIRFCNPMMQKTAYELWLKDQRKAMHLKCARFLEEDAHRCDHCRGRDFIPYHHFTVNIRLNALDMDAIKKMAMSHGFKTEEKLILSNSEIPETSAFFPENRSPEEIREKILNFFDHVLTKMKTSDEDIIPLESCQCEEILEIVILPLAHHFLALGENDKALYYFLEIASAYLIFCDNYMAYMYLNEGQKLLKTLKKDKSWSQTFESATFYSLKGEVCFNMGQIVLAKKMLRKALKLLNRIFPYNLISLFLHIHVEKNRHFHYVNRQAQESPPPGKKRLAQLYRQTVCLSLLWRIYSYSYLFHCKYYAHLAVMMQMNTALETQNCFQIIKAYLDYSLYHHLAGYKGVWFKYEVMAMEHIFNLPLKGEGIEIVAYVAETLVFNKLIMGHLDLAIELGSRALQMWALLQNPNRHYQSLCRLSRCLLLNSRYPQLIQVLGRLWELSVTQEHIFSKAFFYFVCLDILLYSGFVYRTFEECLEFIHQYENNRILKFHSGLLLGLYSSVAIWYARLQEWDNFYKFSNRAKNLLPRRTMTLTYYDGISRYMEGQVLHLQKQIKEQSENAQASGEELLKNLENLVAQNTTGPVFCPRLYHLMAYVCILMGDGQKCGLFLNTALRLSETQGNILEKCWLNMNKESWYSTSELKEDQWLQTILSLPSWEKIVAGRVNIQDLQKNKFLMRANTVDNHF

One may read the IC50 as the concentration that gives 50% inhibition. In turn, `Nc1nc(Cl)cc(-c2nn(C(F)F)cc2Cc2ccccc2)n1` returned an IC50 in series [1] of 829 nM.
For `Nc1nc(Cl)cc(-c2nn(C(F)F)cc2Cc2ccccc2OCCN2CCS(=O)(=O)CC2)n1`, the IC50 in series [2] was 14.6 nM.
Still for that read-out and setting: under `Nc1nc(Cl)cc(-c2nn(C(F)F)cc2Cc2ccccc2OCCN2CCOCC2)n1` stands 1.9 nM; under `CC1(O)CCN(CCOc2ccccc2Cc2cn(C(F)F)nc2-c2cc(Cl)nc(N)n2)CC1`, 16.7 nM.
In series [1], `CNC(=O)c1ccccc1Cc1cn(C)nc1-c1cc(Cl)nc(N)n1` came in with an IC50 of 1240 nM.
Turning to `Nc1nc(Cl)cc(-c2nn(C(F)F)cc2Cc2ccccc2OCCN2CCNC(=O)C2)n1`, the IC50 in [2] came out at 5.5 nM.
Molecule `Nc1nc(Cl)cc(-c2nc3ccccn3c2Cc2ccccc2)n1` had an IC50 in series [1] of 716 nM.
Same read-out and setting: under `Cn1cc(Cc2cccc(Cl)c2)c(-c2cc(Cl)nc(N)n2)n1` stands 389 nM.
The same measure, in the same setting: in the case of `Nc1nc(Cl)cc(-c2nn3ccccc3c2Cc2ccccc2)n1` it was 112 nM.
For `Nc1nc(Cl)cc(-c2nn(C(F)F)cc2Cc2ccccc2OCCN2CCO[C@H](CO)C2)n1`, the IC50 in series [2] stood at 22.9 nM.
For the molecule `Nc1nc(Cl)cc(-c2nn(C(F)F)cc2Cc2ccccc2OCCN2CCO[C@@H](CO)C2)n1`, the IC50 in [2] is 34.8 nM.
`CNC(=O)c1cccc(Cc2cn(C)nc2-c2cc(Cl)nc(N)n2)c1` came in with an IC50 in [1] of 1880 nM.
What is called AUC is concentration integrated over time. As a reminder, the Cmax is the peak of the concentration-time curve. As a reminder, the Tmax is the time from dosing to the highest level. As usually defined, the logD is lipophilicity at a set pH, counting ionised and neutral species. A high value points to higher lipophilicity. Take `Nc1nc(Cl)cc(-c2nn(C(F)F)cc2Cc2ccccc2OCCN2CCOC[C@H]2CO)n1`: the figures for the AUC in [3], in [6] and in series [10] were 0.78 µM·h, 0.41 µM·h and 5.46 µM·h, respectively. Also, the highest concentration (Cmax) turned out to be 2500 nM in [4], 450 nM in series [7] and 6100 nM in [11]. The molecule also had a t1/2 in [5] of 55.8 min. For the same molecule, the Tmax in series [8] and in series [12] was 15 min in each case. Besides, the F in [9] came out at 11%. Further, the permeability in series [13] was 46.3 ×10⁻⁶ cm/s. In [14], this molecule showed a logD of 2.89. Moreover, the solubility kinetic in series [15] was determined as 79 µg/mL (≈ 160 µM). Also, in [16], the Activity result is “Non-Toxic”.
Turning to `COc1ccccc1Cc1cn(C)nc1-c1cc(Cl)nc(N)n1`, half-maximal inhibition in [1] (IC50) required 67 nM.
The same measure, in the same setting: in the case of `Cn1cc(Cc2ccc(Cl)cc2)c(-c2cc(Cl)nc(N)n2)n1` it was 2580 nM.
Usually Kd stands for the concentration at which binding is half-saturated. The low end stands for tighter binding, the high end for weaker binding. Turning to `Nc1nc(Cl)cc(-c2nn(C(F)F)cc2Cc2ccccc2OCC(=O)N2CCOCC2)n1`, the figures for the IC50 in [2] and in [1] were 37.7 nM and 24.2 nM, respectively. In series [17], the dissociation constant (Kd) was determined as 4.7 nM.
Take `COC(=O)[C@H]1COCCN1CCOc1ccccc1Cc1cn(C(F)F)nc1-c1cc(Cl)nc(N)n1`: the IC50 in series [2] amounted to 2.5 nM.
The molecule `Cn1cc(Cc2ccccc2Cl)c(-c2cc(Cl)nc(N)n2)n1` showed an IC50 in series [1] of 64 nM.
